In patent EP0241395A2, “Sweeteners derived from n-phenylguanidinoacetic and n-phenylethananamidinacetic acids, and compositions containing such sweeteners” (UNIVERSITE CLAUDE BERNARD - LYON 1, priority 1986, dated 1987):

Test system: groupe de huit goûteurs expérimentés
Experiment: Sweetening power judged by a panel of eight experienced tasters against a sucrose reference solution
Format: in vivo
Details: weight basis; for Pouvoir édulcorant: Table II, relative to a 2 % sucrose solution; for pouvoir édulcorant, sur une base pondérale: by comparison with a 2 % sucrose solution, approximate
Description: Le pouvoir édulcorant des composés préparés dans les exemples suivants a été évalué par un groupe de huit goûteurs expérimentés. Pour cela, les composés, en solution aqueuse à des concentrations variables, sont comparés, sur le plan gustatif, à une solution témoin de saccharose à 2 % et dans certains cas à 5 % et 10 %, c'est-à-dire à des concentrations correspondant à celles utilisées lors d'un usage courant. Le pouvoir sucrant des édulcorants de synthèse varie en effet suivant la concentration de la solution de saccharose utilisée comme référence. Le pouvoir édulcorant du composé testé par rapport au saccharose correspond alors au rapport pondéral qui existe entre le composé et le saccharose à égale intensité édulcorante, c'est-à-dire quand les saveurs sucrées de la solution du composé testé et de la solution témoin de saccharose sont considérées, par une majorité de goûteurs, avoir la même intensité édulcorante.

Row | SMILES | Pouvoir édulcorant | pouvoir édulcorant, sur une base pondérale
1 | C[C@H](NC(=Nc1ccccc1)NCC(=O)O)c1ccccc1 [Exemple 1, acide N-[N-(S)-α-méthylbenzylamine (phénylimino)méthyl]-2-aminoéthanoïque] | 5000 | ~5 000 fois celui du saccharose
2 | C[C@H](NC(=Nc1cccc(Br)c1)NCC(=O)O)c1ccccc1 [Exemple 2, acide N-[N-(S)-a-méthylbenzylamino (3-bromophénylimino)méthyl]-2-aminoéthanoïque] | 25000 | ~25 000 fois celui du saccharose
3 | C[C@H](NC(=Nc1cccc(C(F)(F)F)c1)NCC(=O)O)c1ccccc1 [Exemple 3] | 7 500 | ~7 500 fois celui du saccharose
4 | Cc1cccc(N=C(NCC(=O)O)N[C@@H](C)c2ccccc2)c1 [Exemple 4, acide N-[N (S)-α-méthylbenzylamino (3-méthylphénylimino)méthyl]-2-aminoéthanoïque] | 12000 | ~12 000 fois celui du saccharose
5 | CCc1cccc(N=C(NCC(=O)O)N[C@@H](C)c2ccccc2)c1 [Exemple 5, acide N-[N-(S) -α-méthylbenzylamino (3-éthylphénylimino)méthyl]-2-aminoéthanoïque] | 4 500 | ~4 500 fois celui du saccharose
6 | C[C@H](NC(=Nc1cccc(Cl)c1)NCC(=O)O)c1ccccc1 [Exemple 6, acide N-[N-(S)-α-méthylbenzylamino (3-chlorophénylimino)méthyl]-2-aminoéthanoïque] | 30000 | ~30 000 fois celui du saccharose
7 | C[C@H](NC(=Nc1cccc(C#N)c1)NCC(=O)O)c1ccccc1 [Exemple 7, acide N-[N-(S)-α-méthylbenzylamino (3-cyanophénylimino)méthyl]-2-aminoéthanoïque] | 5 500 | ~5 500 fois celui du saccharose
8 | C[C@H](NC(=Nc1cccc([N+](=O)[O-])c1)NCC(=O)O)c1ccccc1 [Exemple 8, acide N-[N-(S)-α-méthylbenzylamino (3-nitrophénylimino)méthyl] -2-aminoéthanoique] | 6000 | ~6 000 fois celui du saccharose
9 | COc1cccc(N=C(NCC(=O)O)N[C@@H](C)c2ccccc2)c1 [Exemple 9, acide N-[N-(S)-ot-méthylbenzylamino (3-méthoxyphénylimino)méthyl]-2-aminoéthanoïque] | 4 500 | ~4 500 fois celui du saccharose
10 | CSc1cccc(N=C(NCC(=O)O)N[C@@H](C)c2ccccc2)c1 [Exemple 10, acide N-[N-(S)-a-méthylbenzylamino (3-méthylmercaptophénylimino)méthyl]-2-aminoéthanoïque] | 5 500 | ~5 500 fois celui du saccharose
11 | C[C@H](NC(=Nc1ccc(C(F)(F)F)cc1)NCC(=O)O)c1ccccc1 [Exemple 11, acide N-[N-(S)-α-méthylbenzylamino (4-trifluorométhylphénylimino)méthyl]-2-aminoéthanoïque] | 500 | ~500 fois celui du saccharose
12 | Cc1ccc(N=C(NCC(=O)O)N[C@@H](C)c2ccccc2)cc1 [Exemple 12, acide N-[N-(S)-a-méthylbenzylamino (4-méthylphénylimino)méthyl]-2-aminoéthanoïque] | 800 | ~800 fois celui du saccharose
13 | C[C@H](NC(=Nc1ccc(Cl)cc1)NCC(=O)O)c1ccccc1 [Exemple 13, acide N-[N-(S)-α-méthylbenzylamino (4-chlorophénylimino)méthyl]-2-aminoéthanoïque] | 3000 | ~3 000 fois celui du saccharose
14 | CC(=O)c1ccc(N=C(NCC(=O)O)N[C@@H](C)c2ccccc2)cc1 [Exemple 15, acide N-[N-(S) -α-méthylbenzylamino (4-acétylphénylimino)méthyl]-2-aminoéthanoïque] | 800 | ~800 fois celui du saccharose
15 | COC(=O)c1ccc(N=C(NCC(=O)O)N[C@@H](C)c2ccccc2)cc1 [Exemple 16, acide N-[N-(S)-α-méthylbenzylamino (4-méthoxycarbonylphénylimino)méthyl]-2-aminoéthanoïque] | 700 | ~700 fois celui du saccharose
16 | C[C@H](N=C(NCC(=O)O)Nc1ccc(F)cc1)c1ccccc1 [Exemple 17, acide N-[N-(S)-α-méthylbenzylamine (4-fluorophénylimino)méthyl]-2-aminoéthanoïque] | 4000 | ~4 000 fois celui du saccharose
17 | C[C@H](NC(=Nc1ccc([N+](=O)[O-])cc1)NCC(=O)O)c1ccccc1 [Exemple 18, acide N-[N-(S)-a-méthylbenzylamino (4-nitrophénylimino)méthyl]-2-aminoéthanoïque] | 7000 | ~7 000 fois celui du saccharose
18 | COc1ccc(N=C(NCC(=O)O)N[C@@H](C)c2ccccc2)cc1 [Exemple 19, acide N-[N-(S)-α-méthylbenzylamino (4-méthoxyphénylimino)méthyl]-2-aminoéthanoïque] | 2 100 | ~2100 times sucrose
19 | C[C@H](NC(=Nc1ccc(O)cc1)NCC(=O)O)c1ccccc1 [Exemple 20, acide N-[N-(S)-α-méthylbenzylamino (4-hydroxyphénylimino)méthyl]-2-aminoéthanoïque] | 400 | ~400 fois celui du saccharose
20 | CSc1ccc(N=C(NCC(=O)O)N[C@@H](C)c2ccccc2)cc1 [Exemple 21, acide N-[N-(S)-a-méthylbenzylamino (4-méthylmercaptophénylimino)méthyl)-2-aminoéthanoïque] | 1200 | ~1200 times sucrose
21 | Cc1cc(N=C(NCC(=O)O)N[C@@H](C)c2ccccc2)ccc1C#N [Exemple 22, acide N-[N-(S)-a-méthylbenzylamino (4-cyano-3-méthylphénylimino)méthyl]-2-aminoéthanoïque] | 50000 | ~50 000 fois celui du saccharose
22 | C[C@H](NC(=Nc1ccc(Cl)c(Cl)c1)NCC(=O)O)c1ccccc1 [Exemple 23, acide N-[N-(S) -α-méthylbenzylamino (3,4-dichlorophénylimino)méthyl]-2-aminoéthanoïque] | 17000 | ~17 000 fois celui du saccharose
